What was measured:
Format in all cases: cell-based
Settings in all cases: hepg2, 24 h
HepG2 [1] = assay: Cytotoxicity against human HepG2 cells assessed as NBD-PC phospholipid accumulation at 0.1 to 100 uM after 24 hrs by Hoechst 33342 normalization-based fluorescence assay
HepG2 [2] = assay: Cytotoxicity against human HepG2 cells at 100 uM after 24 hrs by Hoechst 33342 staining-based fluorescence assay
HepG2 [3] = assay: Cytotoxicity against human HepG2 cells assessed as disruption of membrane integrity at 20 uM after 24 hrs by LDH release assay
HepG2 [4] = assay: Cytotoxicity against human HepG2 cells assessed as reduction in cell viability at >/= 50 uM after 24 hrs by Neutral red uptake assay
HepG2 [5] = assay: Cytotoxicity against human HepG2 cells assessed as increase in lysosomal beta-hexosaminidase level at 50 to 100 uM after 24 hrs by MUG-based fluorescence assay
HepG2 [6] = assay: Cytotoxicity against human HepG2 cells assessed as formation of lysosomal inclusion bodies at 50 uM after 24 hrs by transmission electron microscopy
HepG2 [7] = assay: Cytotoxicity against human HepG2 cells assessed as reduction in cell viability after 24 hrs by Neutral red uptake assay
HepG2 [8] = assay: Cytotoxicity against human HepG2 cells assessed as increase in lysosomal beta-hexosaminidase level at 20 uM after 24 hrs by MUG-based fluorescence assay
HepG2 [9] = assay: Cytotoxicity against human HepG2 cells assessed as increase in lysosomal beta-hexosaminidase level at 35 uM after 24 hrs by MUG-based fluorescence assay
HepG2 [10] = assay: Cytotoxicity against human HepG2 cells assessed as disruption of membrane integrity at >= 50 uM after 24 hrs by LDH release assay
HepG2 [11] = assay: Cytotoxicity against human HepG2 cells assessed as NBD-PC phospholipid accumulation after 24 hrs by Hoechst 33342 normalization-based fluorescence assay
HepG2 [12] = assay: Cytotoxicity against human HepG2 cells assessed as disruption of membrane integrity at 35 uM after 24 hrs by LDH release assay
HepG2 [13] = assay: Cytotoxicity against human HepG2 cells assessed as reduction in cell viability at 0.1 to 100 uM after 24 hrs by Neutral red uptake assay
HepG2 [14] = assay: Cytotoxicity against human HepG2 cells assessed as disruption of membrane integrity up to 100 uM after 24 hrs by LDH release assay
HepG2 [15] = assay: Cytotoxicity against human HepG2 cells assessed as increase in lysosomal beta-hexosaminidase level at 10 to 100 uM after 24 hrs by MUG-based fluorescence assay
HepG2 [16] = assay: Cytotoxicity against human HepG2 cells assessed as reduction in cell viability at 100 uM after 24 hrs by Neutral red uptake assay

SMILES	Activity (HepG2 [1])	Activity (HepG2 [2])	Activity (HepG2 [6])	Activity (HepG2 [11])	Activity (HepG2 [13])	Activity (HepG2 [14])	also measured
Clc1ccccc1CNC1CN2CCC1CC2 (stereo unspecified)	Non-toxic						
Cc1cccc(C)c1C(OCCN(C)C)C1CCCCC1 (stereo unspecified)		Toxic	Toxic	Dose-dependent effect			Activity (HepG2 [3]): Non-toxic; Activity (HepG2 [4]): Toxic; Activity (HepG2 [5]): Toxic; Activity (HepG2 [7]): Dose-dependent effect; Activity (HepG2 [8]): Toxic; Activity (HepG2 [9]): Toxic; Activity (HepG2 [10]): Toxic; Activity (HepG2 [12]): Non-toxic
CCN(CC)CCNC1=Nc2ccccc2CCC1	Non-toxic		Toxic				Activity (HepG2 [5]): Toxic
OC(CN1CCOCC1)c1csc2ccccc12 (stereo unspecified)	Non-toxic				Non-toxic	Non-toxic	
CCOc1ccc(Br)cc1CNCC1CCNCC1		Toxic	Toxic	Dose-dependent effect			Activity (HepG2 [15]): Toxic; Activity (HepG2 [4]): Toxic; Activity (HepG2 [7]): Dose-dependent effect; Activity (HepG2 [10]): Toxic
CCN(CC)CCNCc1c(OC)ccc2ccccc12		Non-toxic	Toxic	Dose-dependent effect			Activity (HepG2 [16]): Non-toxic; Activity (HepG2 [15]): Toxic
COc1ccc(CNCC(O)c2nnn(C)n2)cc1OC (stereo unspecified)	Toxic		Toxic		Non-toxic	Non-toxic	
c1cc(C[N+]23CN4CN(CN(C4)C2)C3)cs1	Non-toxic				Non-toxic	Non-toxic	
C1CN(CCN2CCOCC2)CCO1	Non-toxic				Non-toxic	Non-toxic	
CC1=NN(C(=O)c2nn(C)cc2[N+](=O)[O-])C(O)(C(F)(F)F)C1 (stereo unspecified)	Non-toxic				Non-toxic	Non-toxic	
CCCCc1oc2ccccc2c1C(=O)c1cc(I)c(OCCN(CC)CC)c(I)c1 [AMIODARONE]		Toxic		Dose-dependent effect			Activity (HepG2 [5]): Toxic; Activity (HepG2 [7]): Dose-dependent effect; Activity (HepG2 [10]): Toxic
CN/C(=N/CCSCc1nc[nH]c1C)NC#N [CIMETIDINE]	Non-toxic				Non-toxic	Non-toxic	

Reference: ChEMBL document CHEMBL3407411, “Evaluating the risk of phospholipidosis using a new multidisciplinary pipeline approach” (Eur J Med Chem, 2015)
